Data set [1] has as its system Botryotinia fuckeliana (Botrytis cinerea). As to the kind of experiment: Botryotinia fuckeliana (Botrytis cinerea) / liquid culture (gray mould). Format: cell-based. To be noted: compared to untreated control. As to the method:
Botryotinia fuckeliana (Botrytis cinerea)/Liquid Culture (Gray Mould)
Conidia of the fungus from cryogenic storage are directly mixed into nutrient broth (Vogels broth). After placing a (DMSO) solution of test compound into a microtiter plate (96-well format), the nutrient broth containing the fungal spores is added. The test plates are incubated at 24° C. and the inhibition of growth is determined photometrically 3-4 days after application.

Data set [2] relates to Glomerella lagenarium (Colletotrichum lagenarium). Put plainly: Glomerella lagenarium (Colletotrichum lagenarium) / liquid culture (anthracnose). In kind it is cell-based. The note with it: Colletotrichum orbiculare, compared to untreated control. As to the method:
Conidia of the fungus from cryogenic storage are directly mixed into nutrient broth (PDB potato dextrose broth). After placing a (DMSO) solution of test compound into a microtiter plate (96-well format), the nutrient broth containing the fungal spores is added. The test plates are incubated at 24° C. and the inhibition of growth is measured photometrically 3-4 days after application.

For data set [3], the system named is Fusarium culmorum. Put plainly: microbe, parasite or virus in culture. Format: cell-based. The note with it: read-out: control of Fusarium culmorum.
Data set [4] concerns Monographella nivalis (Microdochium nivale). As to the kind of experiment: Monographella nivalis (Microdochium nivale) / liquid culture (foot rot cereals). In kind it is cell-based. To be noted: compared to untreated control. As to the method:
Monographella nivalis (Microdochium nivale)/Liquid Culture (Foot Rot Cereals)
Conidia of the fungus from cryogenic storage are directly mixed into nutrient broth (PDB potato dextrose broth). After placing a (DMSO) solution of test compound into a microtiter plate (96-well format), the nutrient broth containing the fungal spores is added. The test plates are incubated at 24° C. and the inhibition of growth is determined photometrically 4-5 days after application.

Data set [5] relates to Magnaporthe grisea (Pyricularia oryzae). Put plainly: microbe, parasite or virus in culture. Format: cell-based. To be noted: read-out: control of Magnaporthe grisea.
Data set [6] has as its system Fusarium culmorum. Put plainly: whole plant or invertebrate. Format: in vivo. The note with it: in Triticum aestivum, read-out: control of Fusarium culmorum.
Data set [7] relates to Gibberella zeae (Fusarium graminearum). Put plainly: whole plant or invertebrate. Format: in vivo. The note with it: in Triticum aestivum, read-out: control of Gibberella zeae.
In the next data set the test system is Sclerotinia sclerotiorum. As to the kind of experiment: Sclerotinia sclerotiorum / liquid culture (cottony rot). In kind it is cell-based. The note with it: compared to untreated control. As to the method:
Sclerotinia sclerotiorum/Liquid Culture (Cottony Rot)
Mycelia fragments of a newly grown liquid culture of the fungus are directly mixed into nutrient broth (Vogels broth). After placing a (DMSO) solution of test compound into a microtiter plate (96-well format) the nutrient broth containing the fungal material is added. The test plates are incubated at 24° C. and the inhibition of growth is determined photometrically 3-4 days after application.

In a further data set the test system is Gaeumannomyces graminis. Put plainly: Gaeumannomyces graminis / liquid culture (take-all of cereals). The note with it: compared to untreated control. Format: cell-based. As to the method:
Mycelial fragments of the fungus from cryogenic storage were directly mixed into nutrient broth (PDB potato dextrose broth). After placing a (DMSO) solution of test compound into a microtiter plate (96-well format), the nutrient broth containing the fungal spores is added. The test plates are incubated at 24° C. and the inhibition of growth is determined photometrically 4-5 days after application.

Consider `CC1(C[C@@](C)(Cc2ccccc2)NC(=O)c2cnc3c(F)cccc3c2)CC1` [Compound F-26, N-[(1S)-1-benzyl-1-methyl-2-(1-methylcyclopropyl)ethyl]-8-fluoro-quinoline-3-carboxamide], for which the inhibition of growth at 200 ppm (in data set [1]; in [2]; in the data set with Fusarium culmorum [3]) was no less than 80% each time. For the same compound, the inhibition of growth at 20 ppm in [4] and in [5] was no less than 80% in each case.

On to `C[C@@](Cc1ccccc1)(CC(F)(F)F)NC(=O)c1cnc2ccccc2c1` [Compound F-33, N-[(1R)-1-benzyl-3,3,3-trifluoro-1-methyl-propyl]quinoline-3-carboxamide], for which the inhibition of growth at 200 ppm (in [1]; in data set [2]; with Fusarium culmorum [3]) was no less than 80% throughout. In the data set on Fusarium culmorum [6], the pest or weed control at 200 ppm was no less than 80%.

In the case of `CC(C)C[C@@](C)(Cc1ccccc1)NC(=O)c1cnc2c(F)c(F)ccc2c1` [Compound F-13, N-[(1S)-1-benzyl-1,3-dimethyl-butyl]-7,8-difluoro-quinoline-3-carboxamide], the pest or weed control at 200 ppm (with Fusarium culmorum [6]; in data set [7]) was no less than 80% each time. In addition, in data set [5], the inhibition of growth at 20 ppm was no less than 80%.

For `CC1(C[C@](C)(Cc2ccccc2)NC(=O)c2cnc3c(F)cccc3c2)CC1` [Compound F-25, N-[(1R)-1-benzyl-1-methyl-2-(1-methylcyclopropyl)ethyl]-8-fluoro-quinoline-3-carboxamide], the inhibition of growth at 200 ppm (in data set [1]; in data set [2]; in the data set with Fusarium culmorum [3]) was no less than 80% in each case. The pest or weed control at 200 ppm (in the data set on Fusarium culmorum [6]; in data set [7]) was no less than 80% throughout. Further, the inhibition of growth at 20 ppm (in data set [5]; in the data set with Sclerotinia sclerotiorum) was no less than 80% each time.

Take `CC(Cc1cccc(F)c1)(CC(F)(F)F)NC(=O)c1cnc2c(F)cccc2c1` (centres unmarked) [X.012, 8-fluoro-N-[3,3,3-trifluoro-1-[(3-fluorophenyl)methyl]-1-methyl-propyl]quinoline-3-carboxamide]: the melting point lay in the range of 149 to 151 °C. Further, in [7], the pest or weed control at 200 ppm was no less than 80%. The inhibition of growth at 20 ppm in data set [4] was no less than 80%. The inhibition of growth at 20 ppm in data set [5] was no less than 80%. The compound also showed an inhibition of growth at 20 ppm in the data set on Sclerotinia sclerotiorum of no less than 80%.

In the case of `CC(Cc1ccccc1)(CC(F)(F)F)NC(=O)c1cnc2c(F)c(F)ccc2c1` (centres unmarked) [X.007, N-(1-benzyl-3,3,3-trifluoro-1-methyl-propyl)-7,8-difluoro-quinoline-3-carboxamide], the pest or weed control at 200 ppm in data set [7] is no less than 80%. Moreover, the inhibition of growth at 20 ppm (in [5]; in the data set on Sclerotinia sclerotiorum) was no less than 80% each time.

As for `C[C@](Cc1ccccc1)(CC(F)(F)F)NC(=O)c1cnc2c(Cl)cccc2c1` [Compound F-19, N-[(1S)-1-benzyl-3,3,3-trifluoro-1-methyl-propyl]-8-chloro-quinoline-3-carboxamide], in [7], the pest or weed control at 200 ppm is no less than 80%. In addition, the inhibition of growth at 20 ppm (in data set [5]; with Sclerotinia sclerotiorum) was no less than 80% each time.

Turning to `C[C@](Cc1ccccc1)(CC(F)(F)F)NC(=O)c1cnc2c(F)c(F)ccc2c1` [Compound F-21, N-[(1S)-1-benzyl-3,3,3-trifluoro-1-methyl-propyl]-7,8-difluoro-quinoline-3-carboxamide], the inhibition of growth at 20 ppm (in data set [5]; with Sclerotinia sclerotiorum) was no less than 80% throughout.

Regarding `CC(F)(F)C[C@](C)(Cc1ccccc1)NC(=O)c1cnc2c(F)cccc2c1` [Compound F-32, N-[(1S)-1-benzyl-3,3-difluoro-1-methyl-butyl]-8-fluoro-quinoline-3-carboxamide], in data set [7], the pest or weed control at 200 ppm was no less than 80%. Further, the inhibition of growth at 20 ppm (in [5]; in the data set on Sclerotinia sclerotiorum) was no less than 80% throughout.

Regarding `CC(C)CC(C)(Cc1ccccc1)NC(=O)c1cnc2c(F)c(F)ccc2c1` (centres unmarked) [X.008, N-(1-benzyl-1,3-dimethyl-butyl)-7,8-difluoro-quinoline-3-carboxamide], the melting point lay within 114 to 116 °C. Also, the inhibition of growth at 20 ppm with Gaeumannomyces graminis was no less than 80%. In [7], the pest or weed control at 200 ppm was no less than 80%. This compound had an inhibition of growth at 20 ppm in data set [4] of no less than 80%. Besides, the inhibition of growth at 20 ppm in [5] is no less than 80%.

Regarding `Cc1cccc2cc(C(=O)N[C@@](C)(Cc3ccccc3)CC(F)(F)F)cnc12` [Compound F-17, N-[(1S)-1-benzyl-3,3,3-trifluoro-1-methyl-propyl]-8-methyl-quinoline-3-carboxamide], the inhibition of growth at 20 ppm (in data set [4]; in data set [5]; in the data set with Sclerotinia sclerotiorum) was no less than 80% throughout.

In the case of `C[C@@](Cc1cccc(F)c1)(CC(F)(F)F)NC(=O)c1cnc2c(F)cccc2c1` [Compound F-27, 8-fluoro-N-[(1R)-3,3,3-trifluoro-1-[(3-fluorophenyl)methyl]-1-methyl-propyl]quinoline-3-carboxamide], the inhibition of growth at 200 ppm (in data set [1]; in [2]; with Fusarium culmorum [3]) was no less than 80% each time. For the same compound, the pest or weed control at 200 ppm (in the data set with Fusarium culmorum [6]; in data set [7]) was no less than 80% in each case. Also, the inhibition of growth at 20 ppm in data set [4] and in data set [5] was no less than 80% each time.

Take `C[C@@](Cc1ccccc1)(CC1(F)CC1)NC(=O)c1cnc2c(F)cccc2c1` [Compound F-23, N-[(1R)-1-benzyl-2-(1-fluorocyclopropyl)-1-methyl-ethyl]-8-fluoro-quinoline-3-carboxamide]: the inhibition of growth at 200 ppm (in data set [1]; in [2]; in the data set with Fusarium culmorum [3]) was no less than 80% throughout. The pest or weed control at 200 ppm with Fusarium culmorum [6] was no less than 80%. Moreover, the inhibition of growth at 20 ppm in data set [4] and in [5] was no less than 80% each time.

As to `Cc1cccc2cc(C(=O)NC(C)(Cc3ccccc3)CC(C)C)cnc12` (centres unmarked) [X.017, N-(1-benzyl-1,3-dimethyl-butyl)-8-methyl-quinoline-3-carboxamide], the melting point was in the range of 132 to 133 °C. Moreover, in the data set on Gaeumannomyces graminis, the inhibition of growth at 20 ppm is no less than 80%. In addition, the pest or weed control at 200 ppm in data set [7] is no less than 80%. This compound also registered an inhibition of growth at 20 ppm in [4] of no less than 80%. Further, in data set [5], the inhibition of growth at 20 ppm is no less than 80%.

Turning to `C=C(Cl)C[C@@](C)(Cc1ccccc1)NC(=O)c1cnc2c(F)cccc2c1` [Compound F-36], the inhibition of growth at 200 ppm (in data set [1]; in [2]; with Fusarium culmorum [3]) was no less than 80% in each case.

Compound `CC(Cc1ccccc1)(CC1(F)CC1)NC(=O)c1cnc2c(F)cccc2c1` (centres unmarked) [X.013, N-[1-benzyl-2-(1-fluorocyclopropyl)-1-methyl-ethyl]-8-fluoro-quinoline-3-carboxamide] showed a melting point of 119 to 121 °C. In data set [1], this compound yielded an inhibition of growth at 200 ppm of no less than 80%. In data set [2], this compound had an inhibition of growth at 200 ppm of no less than 80%. Further, the inhibition of growth at 200 ppm in the data set with Fusarium culmorum [3] is no less than 80%. This compound also yielded an inhibition of growth at 20 ppm in data set [4] of no less than 80%. The inhibition of growth at 20 ppm in data set [5] is no less than 80%. Further, the inhibition of growth at 20 ppm with Sclerotinia sclerotiorum was no less than 80%.

For the compound `CC(C)C[C@@](C)(Cc1cccc(F)c1)NC(=O)c1cnc2c(F)cccc2c1` [Compound F-30, 8-fluoro-N-[(1S)-1-[(3-fluorophenyl)methyl]-1,3-dimethyl-butyl]quinoline-3-carboxamide], the inhibition of growth at 200 ppm (in data set [1]; in data set [2]; in the data set with Fusarium culmorum [3]) was no less than 80% throughout. In addition, in the data set with Fusarium culmorum [6], the pest or weed control at 200 ppm was no less than 80%. The inhibition of growth at 20 ppm in data set [4] and in data set [5] was no less than 80% each time.

The melting point is the temperature, or range, at which the solid turns liquid.

These data come from patent publication US11234437B2 (priority 2017, dated 2022).
